Data on 15 substances can be found in the OligoGym collection.

Strand notation (5' to 3'): a small letter for the sugar, then the base; units joined by * are phosphorothioate-linked, units joined directly phosphodiester-linked; [ ] holds rarer units or linkages, { } end groups; capitals alone tell only the bases. HELM strings list units from the 5' end as sugar, base in round brackets, then linkage (d deoxyribose, r ribose, m 2'-O-methyl, p phosphodiester). [sp] = phosphorothioate linkage; d = 2'-deoxy (DNA); m = 2'-O-methyl

Data set [1] deals with CTNNB1. Briefly: HEK293-TLR8, 100 nM ASO, then resiquimod.
The target in data set [2] is CTNNB1. The data set can be described thus: HEK293-TLR7, 100 nM ASO, then resiquimod.
Data set [3] addresses LINC-PINT. Briefly: HEK293-TLR8, 100 nM ASO, then resiquimod.
The target in data set [4] is LINC-PINT. Briefly: HEK293-TLR7, 100 nM ASO, then resiquimod.

In the case of “RNA1{m(C)[sp].m(A)[sp].m(U)[sp].m(A)[sp].m(U)[sp].d(T)[sp].d(A)[sp].d(A)[sp].d(A)[sp].d(A)[sp].d(A)[sp].d(G)[sp].d(G)[sp].d(A)[sp].d(A)[sp].m(A)[sp].m(C)[sp].m(U)[sp].m(A)[sp].m(A)}$$$$”, the TLR8 potentiation (NF-kB luciferase) (fold of resiquimod alone) in data set [1] was 2.31. In data set [2], this substance yielded a TLR7 signal (NF-kB luciferase) (% of resiquimod alone) of 108.

Take “RNA1{m(C)[sp].m(A)[sp].m(G)[sp].m(A)[sp].m(U)[sp].d(T)[sp].d(A)[sp].d(C)[sp].d(A)[sp].d(A)[sp].d(T)[sp].d(T)[sp].d(A)[sp].d(A)[sp].d(T)[sp].m(U)[sp].m(A)[sp].m(G)[sp].m(A)[sp].m(G)}$$$$”: the TLR8 potentiation (NF-kB luciferase) (fold of resiquimod alone) in data set [1] was 2.76. Besides, the TLR7 signal (NF-kB luciferase) (% of resiquimod alone) in data set [2] was 80.8.

On to “RNA1{m(U)[sp].m(U)[sp].m(A)[sp].m(U)[sp].m(U)[sp].d(T)[sp].d(T)[sp].d(A)[sp].d(A)[sp].d(G)[sp].d(C)[sp].d(A)[sp].d(T)[sp].d(A)[sp].d(T)[sp].m(U)[sp].m(A)[sp].m(A)[sp].m(A)[sp].m(A)}$$$$”, for which the TLR8 potentiation (NF-kB luciferase) (fold of resiquimod alone) in data set [1] is 2.97. The TLR7 signal (NF-kB luciferase) (% of resiquimod alone) in data set [2] is 41.5.

For the substance “RNA1{m(A)[sp].m(C)[sp].m(C)[sp].m(C)[sp].m(A)[sp].d(A)[sp].d(G)[sp].d(G)[sp].d(C)[sp].d(A)[sp].d(T)[sp].d(C)[sp].d(C)[sp].d(T)[sp].d(G)[sp].m(G)[sp].m(C)[sp].m(C)[sp].m(A)[sp].m(U)}$$$$”, the TLR8 potentiation (NF-kB luciferase) (fold of resiquimod alone) in data set [1] was 2.29. For the same substance, the TLR7 signal (NF-kB luciferase) (% of resiquimod alone) in data set [2] amounted to 70.7.

With “RNA1{m(U)[sp].m(C)[sp].m(A)[sp].m(A)[sp].m(U)[sp].d(G)[sp].d(G)[sp].d(G)[sp].d(A)[sp].d(G)[sp].d(A)[sp].d(A)[sp].d(T)[sp].d(A)[sp].d(A)[sp].m(A)[sp].m(G)[sp].m(C)[sp].m(A)[sp].m(G)}$$$$”, in data set [1], the TLR8 potentiation (NF-kB luciferase) (fold of resiquimod alone) was 3.97. The substance further yielded a TLR7 signal (NF-kB luciferase) (% of resiquimod alone) in data set [2] of 68.9.

As to “RNA1{m(U)[sp].m(U)[sp].m(C)[sp].m(U)[sp].m(G)[sp].d(C)[sp].d(A)[sp].d(G)[sp].d(C)[sp].d(T)[sp].d(T)[sp].d(C)[sp].d(C)[sp].d(T)[sp].d(T)[sp].m(G)[sp].m(U)[sp].m(C)[sp].m(C)[sp].m(U)}$$$$”, in data set [1], the TLR8 potentiation (NF-kB luciferase) (fold of resiquimod alone) was found to be 4.06. For the same substance, the TLR7 signal (NF-kB luciferase) (% of resiquimod alone) in data set [2] is 42.7.

“mU*mU*mA*mG*mC*dT*dC*dC*dT*dT*dG*dC*dC*dT*dC*mG*mU*mU*mC*mC”: in data set [3], the TLR8 potentiation (NF-kB luciferase) (fold of resiquimod alone) was determined as 3.43. In data set [4], this substance displayed a TLR7 signal (NF-kB luciferase) (% of resiquimod alone) of 31.7.

With “mG*mU*mC*mU*mC*dC*dT*dC*dC*dA*dC*dA*dC*dC*dC*mU*mU*mC*mU*mC”, the TLR8 potentiation (NF-kB luciferase) (fold of resiquimod alone) in data set [3] came to 1.98. The same substance gave a TLR7 signal (NF-kB luciferase) (% of resiquimod alone) in data set [4] of 25.

In the case of “mC*mC*mU*mA*mU*dT*dA*dA*dA*dA*dA*dA*dA*dT*dT*mU*mA*mU*mA*mC”, the TLR8 potentiation (NF-kB luciferase) (fold of resiquimod alone) in data set [3] worked out at 2.19. For the same substance, in data set [4], the TLR7 signal (NF-kB luciferase) (% of resiquimod alone) worked out at 109.

Regarding “mG*mG*mU*mC*mU*dC*dC*dT*dC*dC*dA*dC*dA*dC*dC*mC*mU*mU*mC*mU”, the TLR8 potentiation (NF-kB luciferase) (fold of resiquimod alone) in data set [3] turned out to be 1.29. The substance also showed a TLR7 signal (NF-kB luciferase) (% of resiquimod alone) in data set [4] of 23.7.

As to “mC*mU*mU*mU*mA*dT*dA*dT*dT*dA*dC*dA*dA*dA*dG*mC*mU*mA*mC*mU”, the TLR8 potentiation (NF-kB luciferase) (fold of resiquimod alone) in data set [3] came to 2.11. The TLR7 signal (NF-kB luciferase) (% of resiquimod alone) in data set [4] is 54.8.

Regarding “mC*mC*mU*mU*mC*dT*dC*dT*dC*dT*dG*dG*dT*dC*dC*mC*mA*mU*mC*mC”, the TLR8 potentiation (NF-kB luciferase) (fold of resiquimod alone) in data set [3] was 3.01. This substance displayed a TLR7 signal (NF-kB luciferase) (% of resiquimod alone) in data set [4] of 60.9.

In the case of “mU*mC*mC*mC*mA*dT*dC*dC*dC*dT*dT*dC*dT*dG*dC*mU*mG*mC*mC*mA”, in data set [3], the TLR8 potentiation (NF-kB luciferase) (fold of resiquimod alone) is 3.95. Besides, the TLR7 signal (NF-kB luciferase) (% of resiquimod alone) in data set [4] is 43.1.

“mC*mA*mA*mG*mC*dC*dC*dC*dA*dG*dC*dG*dT*dT*dC*mC*mU*mC*mC*mG”: the TLR8 potentiation (NF-kB luciferase) (fold of resiquimod alone) in data set [3] came out at 2.74. The substance further gave a TLR7 signal (NF-kB luciferase) (% of resiquimod alone) in data set [4] of 45.2.

As for “mG*mU*mC*mC*mC*dA*dT*dC*dC*dC*dT*dT*dC*dT*dG*mC*mU*mG*mC*mC”, the TLR8 potentiation (NF-kB luciferase) (fold of resiquimod alone) in data set [3] stood at 1.37. For the same substance, the TLR7 signal (NF-kB luciferase) (% of resiquimod alone) in data set [4] amounted to 22.5.
